Source: PMC8551148, “Identification and characterization of deschloro-chlorothricin obtained from a large natural product library targeting aurora A kinase in multiple myeloma” (Investigational New Drugs, 2020)

Molecular target: T1, Aurora A kinase (AURKA) (Homo sapiens, UniProt O14965)
T1 sequence (O14965 1-403): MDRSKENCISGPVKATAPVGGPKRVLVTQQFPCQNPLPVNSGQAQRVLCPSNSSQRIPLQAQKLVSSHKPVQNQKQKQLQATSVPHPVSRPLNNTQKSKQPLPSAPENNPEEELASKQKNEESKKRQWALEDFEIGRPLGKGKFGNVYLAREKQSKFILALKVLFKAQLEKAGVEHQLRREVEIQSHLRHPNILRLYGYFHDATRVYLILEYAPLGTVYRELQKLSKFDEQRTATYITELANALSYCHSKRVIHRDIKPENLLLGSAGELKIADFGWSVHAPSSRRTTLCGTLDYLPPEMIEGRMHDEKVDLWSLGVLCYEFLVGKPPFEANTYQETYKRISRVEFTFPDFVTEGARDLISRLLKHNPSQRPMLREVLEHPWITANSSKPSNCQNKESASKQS
Assay: microscale thermophoresis with RED-NHS labelled purified AURKA ([…])
Type: binding

Kd: 8.17 µM
SMILES: COc1cccc(C)c1C(=O)O[C@@H]1C[C@H](O[C@H]2[C@H](O)C[C@H](O[C@@H]3CCC[C@H]4[C@H]3C=C[C@@H]3CCCC/C=C\[C@H]5C=C(C(=O)O)[C@@H](C)C[C@@]56OC(=O)C(=C6O)OC(=O)[C@@]34C)O[C@@H]2C)O[C@H](C)[C@H]1O [Compound 5, deschloro-chlorothricin]
